These results are taken from patent US9375013B2, “Herbicidal composition” (ISHIHARA SANGYO KAISHA, LTD., priority 2013, dated 2016).

A word on the inhibition: it is the change of the read-out against control, counted positive when it falls.

Assay type in all cases: in vivo
For assay [1], the system named is wild oat (Avena fatua L.). The assay is described as follows: Test Example 3: pot soil treatment, growth inhibition of wild oat. The following applies: 22nd day after treatment, read-out: Growth inhibition rate (%) of wild oat, Measured value. The source says:
(§1) On the 14th day after treatment, the state of growth of the summergrass was visually observed to determine the growth inhibition rate in accordance with the following evaluation standard. The growth inhibition rate (%) (measured value) and the growth inhibition rate (%) (calculated value) calculated by the Colby's formula are shown in Table 1. Growth inhibition rate (%)=0 (equivalent to the non-treated area) to 100 (complete kill) Upland field soil was put into a 1/160,000 ha pot, and seeds of wild oat (Avena fatua L.) were sown. On the next day, predetermined amounts of flazasulfuron, mesotrione and imazapic were diluted with water (in an amount corresponding to 300 L/ha), and applied for soil treatment by a small sprayer. On the 22nd day after treatment, the state of growth of the wild oat was visually observed to determine the growth inhibition rate. The growth inhibition rate (%) (measured value) and the growth inhibition rate (%) calculated in the same manner as in Test Example 1 are shown in Table 3.

The subject of assay [2] is field bindweed (Convolvulus arvensis L.). The assay is described as follows: Test Example 5: pot soil treatment, growth inhibition of field bindweed. The following applies: dose 30 g/ha, 22nd day after treatment, read-out: Growth inhibition rate (%) of field bindweed, Measured value.
Source text: as §1, with “field bindweed (Convolvulus arvensis” for “wild oat (Avena fatua”, “flazasulfuron” for “flazasulfuron, mesotrione”, “hexazinone” for “imazapic”, “field bindweed” for “wild oat”, “5.” for “3.”

Assay [3] concerns persian speedwell (Veronica persica Poiret.). The assay is described as follows: Test Example 10: pot soil treatment, growth inhibition of persian speedwell. The following applies: dose 30 g/ha, 21st day after treatment, read-out: Growth inhibition rate (%) of persian speedwell, Measured value.
For assay [4], the system named is field bindweed (Convolvulus arvensis L.). Nature of the assay: Test Example 15: pot soil treatment, growth inhibition of field bindweed. The following applies: dose 30 g/ha, 21st day after treatment, read-out: Growth inhibition rate (%) of field bindweed, Measured value.
Source text: as §1, with “field bindweed (Convolvulus arvensis” for “wild oat (Avena fatua”, “21st” for “22nd”, “field bindweed” for “wild oat”, “15.” for “3.”

Assay [5] concerns velvetleaf (Abutilon theophrasti MEDIC.). The assay is described as follows: Test Example 13: pot soil treatment, growth inhibition of velvetleaf. The following applies: dose 30 g/ha, 21st day after treatment, read-out: Growth inhibition rate (%) of velvetleaf, Measured value.
The test system is the same in assay [6]. Nature of the assay: Test Example 14: pot soil treatment, growth inhibition of velvetleaf. The following applies: dose 30 g/ha, 21st day after treatment, read-out: Growth inhibition rate (%) of velvetleaf, Measured value.
Source text: as §1, with “velvetleaf (Abutilon theophrasti MEDIC.)” for “wild oat (Avena fatua L.)”, “flazasulfuron” for “flazasulfuron, mesotrione”, “hexazinone” for “imazapic”, “21st” for “22nd”, “velvetleaf” for “wild oat”, “14.” for “3.”

Assay [7] concerns guinea grass (Panicum maximum Jacq.). Nature of the assay: Test Example 4: pot soil treatment, growth inhibition of guinea grass. The following applies: Megathyrsus maximus, dose 10 g/ha, 22nd day after treatment, read-out: Growth inhibition rate (%) of guinea grass, Measured value.
Source text: as §1, with “guinea grass (Panicum maximum Jacq.)” for “wild oat (Avena fatua L.)”, “flazasulfuron and” for “flazasulfuron,”, “mesotrione” for “mesotrione and imazapic”, “guinea grass” for “wild oat”, “4.” for “3.”

Each structure is given as a SMILES string.

On to `COc1cc(OC)nc(NC(=O)NS(=O)(=O)c2ncccc2C(F)(F)F)n1` [Flazasulfuron, flazasulfuron], for which the inhibition at 30 g/ha in assay [1] (dose 30 g/ha) came to 40%; in assay [2], 0%; in assay [3], 15%; in assay [4] it was 0%; in assay [5] it was 75%; in assay [6], 20%. In assay [1] (dose 50 g/ha), the inhibition at 50 g/ha was determined as 0%. In assay [7], the inhibition at 10 g/ha worked out at 0%.
